For 18 compounds, IC50 results are on record in patent publication US20250145585A1, “HETEROCYCLIC INHIBITORS OF IGF-1R FOR TREATMENT OF DISEASE” (HORIZON THERAPEUTICS IRELAND DAC, priority 2023, published 2025).

A value given as a limit tells only on which side of the number the result lay.

In the experiment the target is T1, IGF-1R (Homo sapiens, UniProt P08069).
T1 construct: expressed in transfected cells
Description: Example B-2: IGF-1R Assay (PathHunter cell lines, EC80 agonist challenge, chemiluminescent detection). It counts as cell-based. The conditions noted are these: PathHunter cells, compound 60 minutes at 37° C., EC80 agonist 3 hours; read-out: IC50, Biological Activity against IGF-1R (Table B2). As for the experimental part: PathHunter cell lines were expanded from freezer stocks according to standard procedures. Cells were seeded in a total volume of 20 μL into white walled, 384-well microplates and incubated for the appropriate time prior to testing.
Cells are pre-incubated with compound followed by EC80 agonist challenge as follows: • R. 1. Intermediate dilution of sample stocks was performed to generate 5× sample in assay buffer. • 2. 5 μL of 5× sample was added to cells and incubated at 37° C. for 60 minutes. Vehicle concentration was 1%. • 3. 5 IL of 6× EC80 agonist in assay buffer was added to the cells and incubated at room temperature for 3 hours.
Assay signal was generated through a single addition of 12.5 or 15 μL (50% v/v) of PathHunter Detection reagent cocktail for agonist and antagonist assays respectively, followed by a one hour incubation at room temperature. Microplates were read following signal generation with a PerkinElmer Envision™ instrument for chemilumine-scent signal detection.
Compound activity was analyzed using CBIS data analysis suite (ChemInnovation, CA). Percentage inhibition was calculated using the following formula: % Inhibition=100%×(1−(mean RLU of test sample−mean RLU of vehicle control)/(mean RLU of EC80 control−mean RLU of vehicle control)). The activity for representative examples of the invention is shown in the following table, wherein A: IC50≤500 nM; B: 500 nM<IC50≤2 μM; C: 2 μM<IC50≤10 μM; D: IC50>10 μM.

T1 sequence (P08069 31-1367): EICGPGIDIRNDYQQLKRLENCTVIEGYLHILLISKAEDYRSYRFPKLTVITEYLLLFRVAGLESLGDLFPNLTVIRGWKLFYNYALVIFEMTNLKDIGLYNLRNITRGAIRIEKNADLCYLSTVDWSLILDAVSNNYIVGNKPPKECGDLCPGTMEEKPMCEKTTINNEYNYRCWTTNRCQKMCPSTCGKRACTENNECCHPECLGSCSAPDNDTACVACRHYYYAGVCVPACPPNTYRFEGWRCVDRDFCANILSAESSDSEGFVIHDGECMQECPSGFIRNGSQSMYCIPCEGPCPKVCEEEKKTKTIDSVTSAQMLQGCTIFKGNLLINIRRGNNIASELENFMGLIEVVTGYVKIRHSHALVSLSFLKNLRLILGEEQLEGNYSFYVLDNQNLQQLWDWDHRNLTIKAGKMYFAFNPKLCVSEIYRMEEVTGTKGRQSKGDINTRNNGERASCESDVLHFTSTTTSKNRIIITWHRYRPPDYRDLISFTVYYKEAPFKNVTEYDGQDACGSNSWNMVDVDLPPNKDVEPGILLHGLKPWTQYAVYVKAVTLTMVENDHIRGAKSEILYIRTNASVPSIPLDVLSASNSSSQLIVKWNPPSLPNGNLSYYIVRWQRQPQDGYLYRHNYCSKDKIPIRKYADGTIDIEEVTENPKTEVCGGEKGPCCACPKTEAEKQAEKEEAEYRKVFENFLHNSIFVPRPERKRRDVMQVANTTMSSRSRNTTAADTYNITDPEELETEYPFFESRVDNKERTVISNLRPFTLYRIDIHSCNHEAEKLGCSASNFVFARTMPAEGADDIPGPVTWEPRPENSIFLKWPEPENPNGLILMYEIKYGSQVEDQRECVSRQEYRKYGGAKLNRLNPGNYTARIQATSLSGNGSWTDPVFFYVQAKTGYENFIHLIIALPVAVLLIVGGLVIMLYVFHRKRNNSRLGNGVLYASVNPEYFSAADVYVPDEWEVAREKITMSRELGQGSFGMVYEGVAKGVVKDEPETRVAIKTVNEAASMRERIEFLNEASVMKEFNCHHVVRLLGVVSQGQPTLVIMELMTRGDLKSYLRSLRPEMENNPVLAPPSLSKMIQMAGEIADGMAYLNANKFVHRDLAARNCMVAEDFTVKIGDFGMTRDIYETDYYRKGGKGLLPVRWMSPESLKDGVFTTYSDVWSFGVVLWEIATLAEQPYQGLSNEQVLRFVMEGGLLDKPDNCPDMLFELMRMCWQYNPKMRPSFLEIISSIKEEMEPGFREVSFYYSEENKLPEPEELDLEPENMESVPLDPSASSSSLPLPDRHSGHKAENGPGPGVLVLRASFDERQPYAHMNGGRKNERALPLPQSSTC

Take `COCCN1CC(C)(C)c2ccc(N3C(=O)N(Cc4ccnc(NC5CCOCC5)c4)C(C)(C)C3=O)cc21` [Compound 227, 3-(1-(2-methoxyethyl)-3,3-dimethylindolin-6-yl)-5,5-dimethyl-1-((2-((tetrahydro-2H-pyran-4-yl)amino)pyridin-4-yl)methyl)imidazolidine-2,4-dione]: the IC50 is not above 500 nM.
Turning to `CC1(C)C(=O)N(c2ccc(C3(C(F)(F)F)CC3)cc2)C(=O)N1Cc1ccnc(NCc2cn[nH]c2)c1` [Compound 171, 1-((2-(((1H-pyrazol-4-yl)methyl)amino)pyridin-4-yl)methyl)-5,5-dimethyl-3-(4-(1-(trifluoromethyl)cyclopropyl)phenyl) imidazolidine-2,4-dione], the IC50 was not above 500 nM.
Turning to `CO[C@H](C)CNc1cc(CN2C(=O)N(c3ccc4c(c3)N(S(C)(=O)=O)CC43CCC3)C(=O)C2(C)C)ccn1` [Compound 239, (R)-1-((2-((2-methoxypropyl)amino)pyridin-4-yl)methyl)-5,5-dimethyl-3-(1′-(methylsulfonyl)spiro[cyclobutane-1,3′-indolin]-6′-yl)imidazolidine-2,4-dione], the IC50 is not above 500 nM.
In the case of `CC1CCc2c(CN3C(=O)N(c4ccc(C5(C(F)(F)F)CC5)cc4)C(=O)C3(C)C)ccnc2N1` (stereo not drawn) [Compound 55, 5,5-dimethyl-1-((7-methyl-5,6,7,8-tetrahydro-1,8-naphthyridin-4-yl)methyl)-3-(4-(1-(trifluoromethyl)cyclopropyl)phenyl) imidazolidine-2,4-dione], the IC50 is not above 500 nM.
To `CC1(C)C(=O)N(c2ccc3c(c2)N(S(C)(=O)=O)CC32CC2)C(=O)N1Cc1ccnc2c1CC(=O)N2` [Compound 45, 5,5-dimethyl-3-(1′-(methylsulfonyl)spiro[cyclopropane-1,3′-indolin]-6′-yl)-1-((2-oxo-2,3-dihydro-1H-pyrrolo[2,3-b]pyridin-4-yl)methyl)imidazolidine-2,4-dione] belongs not above 500 nM; to `COCCOC[C@@H](C)Nc1cc(CN2C(=O)N(c3ccc4c(c3)N(S(C)(=O)=O)CC4(C)C)C(=O)C2(C)C)ccn1` [Compound 224, (R)-3-(3,3-dimethyl-1-(methylsulfonyl)indolin-6-yl)-1-((2-((1-(2-methoxyethoxy)propan-2-yl)amino)pyridin-4-yl)methyl)-5,5-dimethylimidazolidine-2,4-dione], not above 500 nM; to `CC1(C)C(=O)N(c2ccc(C3(C#N)CC3(C)C)cc2)C(=O)N1Cc1ccnc2c1CC(=O)N2` (stereo not drawn) [Compound 61, 1-(4-(4,4-dimethyl-2,5-dioxo-3-((2-oxo-2,3-dihydro-1H-pyrrolo[2,3-b]pyridin-4-yl)methyl)imidazolidin-1-yl)phenyl)-2,2-dimethylcyclopropane-1-carbonitrile], not above 500 nM.
The value for `CC(C)(C#N)c1ccc(N2C(=O)N(Cc3ccnc(N[C@H]4[C@@H]5COC[C@@H]54)c3)C(C)(C)C2=O)cc1` [Compound 162, 2-(4-(3-((2-(((1R,5S,6r)-3-oxabicyclo[3.1.0]hexan-6-yl)amino)pyridin-4-yl)methyl)-4,4-dimethyl-2,5-dioxoimidazolidin-1-yl)phenyl)-2-methylpropanenitrile] was not above 500 nM.
The value for `CC(C)(C)C(=O)Oc1cc2c(CN3C(=O)N(c4ccc(C5(C(F)(F)F)CC5)cc4)C(=O)C3(C)C)ccnc2[nH]1` [Compound 77, 4-((5,5-dimethyl-2,4-dioxo-3-(4-(1-(trifluoromethyl)cyclopropyl)phenyl)imidazolidin-1-yl)methyl)-1H-pyrrolo [2,3-b]pyridin-2-yl pivalate] was not above 500 nM; that for `CN1C[C@@H](Nc2cc(CN3C(=O)N(c4ccc(S(=O)(=O)C(F)(F)F)cc4)C(=O)C3(C)C)ccn2)CC1=O` [Compound 323, (S)-5,5-dimethyl-1-((2-((1-methyl-5-oxopyrrolidin-3-yl)amino)pyridin-4-yl)methyl)-3-(4-((trifluoromethyl)sulfonyl)phenyl) imidazolidine-2,4-dione] was 2000 to 10000 nM.
With `CN1CCC(Nc2cc(CN3C(=O)N(c4ccc(S(=O)(=O)C(F)(F)F)cc4)C(=O)C3(C)C)ccn2)CC1=O` (stereo not drawn) [Compound 326, 5,5-dimethyl-1-((2-((1-methyl-2-oxopiperidin-4-yl)amino)pyridin-4-yl)methyl)-3-(4-((trifluoromethyl)sulfonyl)phenyl) imidazolidine-2,4-dione], the IC50 lay within 2000 to 10000 nM.
The value for `COC[C@@H](C)Nc1cc(CN2C(=O)N(c3ccc4c(c3)N(S(C)(=O)=O)CC43CCC3)C(=O)C2(C)C)ccn1` [Compound 205, (R)-1-((2-((1-methoxypropan-2-yl)amino)pyridin-4-yl)methyl)-5,5-dimethyl-3-(1′-(methylsulfonyl)spiro[cyclobutane-1,3′-indolin]-6′-yl)imidazolidine-2,4-dione] was not above 500 nM.
To `C[C@@H]1COc2c(CN3C(=O)N(c4ccc(S(=O)(=O)C(F)(F)F)cc4)C(=O)C3(C)C)ccnc2N1` [Compound 60, (R)-5,5-dimethyl-1-((3-methyl-3,4-dihydro-2H-pyrido[3,2-b][1,4]oxazin-8-yl)methyl)-3-(4-((trifluoromethyl)sulfonyl)phenyl) imidazolidine-2,4-dione] belongs not above 500 nM.
To `CC1(C)C(=O)N(c2ccc(C3(C(F)(F)F)CC3)cc2)C(=O)N1Cc1ccnc(NC2CS(=O)(=O)C2)c1` [Compound 141, 1-((2-((1,1-dioxidothietan-3-yl)amino)pyridin-4-yl)methyl)-5,5-dimethyl-3-(4-(1-(trifluoromethyl)cyclopropyl)phenyl) imidazolidine-2,4-dione] belongs 500 to 2000 nM; to `CC1(C)C(=O)N(c2ccc(S(=O)(=O)C(F)(F)F)cc2)C(=O)N1Cc1ccnc(NC2CCc3cn[nH]c3C2)c1` (stereo not drawn) [Compound 325, 5,5-dimethyl-1-((2-((4,5,6,7-tetrahydro-1H-indazol-6-yl)amino)pyridin-4-yl)methyl)-3-(4-((trifluoromethyl)sulfonyl)phenyl) imidazolidine-2,4-dione], not above 500 nM; to `CC(C)Nc1cc(CN2C(=O)N(c3ccc(S(=O)(=O)C(C)(C)C)cc3)C(=O)C2(C)C)ccn1` [Compound 354, 3-(4-(tert-butylsulfonyl)phenyl)-1-((2-(isopropylamino)pyridin-4-yl)methyl)-5,5-dimethylimidazolidine-2,4-dione], 500 to 2000 nM.
As for `CC1(C)CN(S(C)(=O)=O)c2cc(N3C(=O)N(Cc4ccnc(N[C@H]5[C@@H]6COC[C@@H]65)c4)C(C)(C)C3=O)ccc21` [Compound 207, 1-((2-(((1R,5S,6r)-3-oxabicyclo[3.1.0]hexan-6-yl)amino)pyridin-4-yl)methyl)-3-(3,3-dimethyl-1-(methylsulfonyl)indolin-6-yl)-5,5-dimethylimidazolidine-2,4-dione], the IC50 is not above 500 nM.
In the case of `CN1CC(C)(C)c2ccc(N3C(=O)N(Cc4ccnc(NC5CCOCC5)c4)C(C)(C)C3=O)cc21` [Compound 210, 5,5-dimethyl-1-((2-((tetrahydro-2H-pyran-4-yl)amino)pyridin-4-yl)methyl)-3-(1,3,3-trimethylindolin-6-yl)imidazolidine-2,4-dione], the IC50 is not above 500 nM.

The IC50 is the concentration that inhibits the measured activity by half.
